# Reference: US10167262B2, “Herbicidal substituted 3-arylpyrazoles” (FMC CORPORATION, priority 2014, dated 2019)
# What was measured:
# Type in all cases: in vivo
# kochia (Kochia scoparia) = experiment: Test E pre-/postemergence greenhouse test, plant response rating 0-100; details: Preemergence, scale 0 to 100
# Summary of the method: (§1)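 Ratings (0 no effect to 100 complete control) came from visual comparison with untreated controls 14 to 21 days after treatment. Compounds in a surfactant-containing non-phytotoxic solvent were applied preemergence to seeded silt loam and postemergence to plants at the 1- to 4-leaf stage.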
# [1] = tested on: velvetleaf (Abutilon theophrasti); experiment: as above; details: Preemergence, scale 0 to 100
# Summary of the method: as §1
# [2] = tested on: yellow nutsedge (Cyperus esculentus); experiment: as above; details: Preemergence, scale 0 to 100
# [3] = tested on: goosegrass (Eleusine indica); experiment: as above; details: Preemergence, scale 0 to 100
# [4] = tested on: johnsongrass (Sorghum halepense); experiment: as above; details: Preemergence, scale 0 to 100
# [5] = tested on: goosegrass (Eleusine indica); experiment: Test C postemergence greenhouse test, plant response rating 0-100; details: for Plant response rating, Goosegrass: 250 g ai/ha, scale 0 to 100
# Summary of the method: (§2)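 Scores run from 0, meaning no effect, to 100, meaning complete control, and come from visual comparison with untreated controls. Treatment was a postemergence application to plants 2–18 cm tall. Assessment followed 13 to 15 days of greenhouse growth.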
# [6] = tested on: canarygrass (Phalaris minor); experiment: as above; details: for Plant response rating, Canarygrass: 250 g ai/ha, scale 0 to 100
# Summary of the method: as §2
# [7] = tested on: windgrass (Apera spica-venti); experiment: as above; details: for Plant response rating, Windgrass: 250 g ai/ha, scale 0 to 100
# Summary of the method: as §2
# [8] = tested on: deadnettle (henbit deadnettle, Lamium amplexicaule); experiment: as above; details: for Plant response rating, Deadnettle: 250 g ai/ha, scale 0 to 100
# Summary of the method: as §2
# [9] = tested on: woolly cupgrass (Eriochloa villosa); experiment: as above; details: for Plant response rating, Cupgrass, Woolly: 250 g ai/ha, scale 0 to 100
# Summary of the method: as §2
# [10] = tested on: green foxtail (Setaria viridis); experiment: as above; details: for Plant response rating, Foxtail, Green: 250 g ai/ha, scale 0 to 100
# Summary of the method: as §2
# [11] = tested on: cocklebur (common cocklebur, Xanthium strumarium); experiment: as above; details: for Plant response rating, Cocklebur: 250 g ai/ha, scale 0 to 100
# Summary of the method: as §2
# [12] = tested on: bermudagrass (Cynodon dactylon); experiment: as above; details: for Plant response rating, Bermudagrass: 250 g ai/ha, scale 0 to 100
# Summary of the method: as §2
# [13] = tested on: surinam grass (Brachiaria decumbens); experiment: as above; details: for Plant response rating, Surinam Grass: 250 g ai/ha, scale 0 to 100
# Summary of the method: as §2
# [14] = tested on: winter barley (Hordeum vulgare); experiment: as above; details: for Plant response rating, Barley: 250 g ai/ha, scale 0 to 100
# Summary of the method: as §2
smiles,measurement,setting,value
O=Cn1cc(C(=O)c2ccccc2)c(-c2cc(Cl)cc(Cl)c2)n1 [Compound 28],Kochia plant response rating,kochia (Kochia scoparia); 31 g ai/ha,15
same,Kochia plant response rating,kochia (Kochia scoparia); 62 g ai/ha,20
same,Kochia plant response rating,kochia (Kochia scoparia); 125 g ai/ha,40
same,Kochia plant response rating,kochia (Kochia scoparia); 250 g ai/ha,40
same,Kochia plant response rating,kochia (Kochia scoparia); 500 g ai/ha,85
same,Velvetleaf plant response rating,[1]; 31 g ai/ha,0
same,Velvetleaf plant response rating,[1]; 62 g ai/ha,0
same,Velvetleaf plant response rating,[1]; 125 g ai/ha,0
same,Velvetleaf plant response rating,[1]; 250 g ai/ha,40
same,Velvetleaf plant response rating,[1]; 500 g ai/ha,100
same,"Nutsedge, Yellow plant response rating",[2]; 31 g ai/ha,0
same,"Nutsedge, Yellow plant response rating",[2]; 62 g ai/ha,0
same,"Nutsedge, Yellow plant response rating",[2]; 125 g ai/ha,0
same,"Nutsedge, Yellow plant response rating",[2]; 250 g ai/ha,0
same,"Nutsedge, Yellow plant response rating",[2]; 500 g ai/ha,0
same,Goosegrass plant response rating,[3]; 31 g ai/ha,0
same,Goosegrass plant response rating,[3]; 62 g ai/ha,0
same,Goosegrass plant response rating,[3]; 125 g ai/ha,0
same,Goosegrass plant response rating,[3]; 250 g ai/ha,0
same,Goosegrass plant response rating,[3]; 500 g ai/ha,0
same,Johnsongrass plant response rating,[4]; 31 g ai/ha,0
same,Johnsongrass plant response rating,[4]; 62 g ai/ha,0
same,Johnsongrass plant response rating,[4]; 125 g ai/ha,0
same,Johnsongrass plant response rating,[4]; 250 g ai/ha,0
same,Johnsongrass plant response rating,[4]; 500 g ai/ha,0
CCn1cc(C(=O)c2ccccc2)c(-c2cc(Br)cc(Br)c2)n1 [Compound 38],"Plant response rating (0 to 100), Goosegrass",[5]; 31 g ai/ha,0
same,"Plant response rating (0 to 100), Goosegrass",[5]; 62 g ai/ha,0
same,"Plant response rating (0 to 100), Goosegrass",[5]; 125 g ai/ha,0
same,"Plant response rating, Goosegrass",[5],0
same,"Plant response rating (0 to 100), Canarygrass",[6]; 31 g ai/ha,0
same,"Plant response rating (0 to 100), Canarygrass",[6]; 62 g ai/ha,0
same,"Plant response rating (0 to 100), Canarygrass",[6]; 125 g ai/ha,0
same,"Plant response rating, Canarygrass",[6],5
same,"Plant response rating (0 to 100), Windgrass",[7]; 62 g ai/ha,0
same,"Plant response rating (0 to 100), Windgrass",[7]; 125 g ai/ha,0
same,"Plant response rating, Windgrass",[7],0
same,"Plant response rating (0 to 100), Deadnettle",[8]; 31 g ai/ha,0
same,"Plant response rating (0 to 100), Deadnettle",[8]; 62 g ai/ha,0
same,"Plant response rating (0 to 100), Deadnettle",[8]; 125 g ai/ha,0
same,"Plant response rating, Deadnettle",[8],5
same,"Plant response rating (0 to 100), Cupgrass, Woolly",[9]; 31 g ai/ha,0
same,"Plant response rating (0 to 100), Cupgrass, Woolly",[9]; 62 g ai/ha,0
same,"Plant response rating (0 to 100), Cupgrass, Woolly",[9]; 125 g ai/ha,0
same,"Plant response rating, Cupgrass, Woolly",[9],0
same,"Plant response rating (0 to 100), Foxtail, Green",[10]; 31 g ai/ha,0
same,"Plant response rating (0 to 100), Foxtail, Green",[10]; 62 g ai/ha,0
same,"Plant response rating (0 to 100), Foxtail, Green",[10]; 125 g ai/ha,0
same,"Plant response rating, Foxtail, Green",[10],5
same,"Plant response rating (0 to 100), Cocklebur",[11]; 31 g ai/ha,5
same,"Plant response rating (0 to 100), Cocklebur",[11]; 62 g ai/ha,10
same,"Plant response rating (0 to 100), Cocklebur",[11]; 125 g ai/ha,15
same,"Plant response rating, Cocklebur",[11],15
same,"Plant response rating (0 to 100), Bermudagrass",[12]; 31 g ai/ha,0
same,"Plant response rating (0 to 100), Bermudagrass",[12]; 62 g ai/ha,0
same,"Plant response rating (0 to 100), Bermudagrass",[12]; 125 g ai/ha,0
same,"Plant response rating, Bermudagrass",[12],0
same,"Plant response rating (0 to 100), Surinam Grass",[13]; 62 g ai/ha,0
same,"Plant response rating (0 to 100), Surinam Grass",[13]; 125 g ai/ha,0
same,"Plant response rating, Surinam Grass",[13],0
same,"Plant response rating (0 to 100), Barley",[14]; 31 g ai/ha,0
same,"Plant response rating (0 to 100), Barley",[14]; 62 g ai/ha,0
same,"Plant response rating (0 to 100), Barley",[14]; 125 g ai/ha,0
same,"Plant response rating, Barley",[14],0
CC(C)n1cc(C(=O)c2ccccc2)c(-c2cc(Cl)cc(Cl)c2)n1 [Compound 44],"Plant response rating (0 to 100), Goosegrass",[5]; 31 g ai/ha,0
same,"Plant response rating (0 to 100), Goosegrass",[5]; 62 g ai/ha,0
same,"Plant response rating (0 to 100), Goosegrass",[5]; 125 g ai/ha,0
same,"Plant response rating, Goosegrass",[5],0
same,"Plant response rating (0 to 100), Canarygrass",[6]; 31 g ai/ha,0
same,"Plant response rating (0 to 100), Canarygrass",[6]; 62 g ai/ha,0
same,"Plant response rating (0 to 100), Canarygrass",[6]; 125 g ai/ha,0
same,"Plant response rating, Canarygrass",[6],0
same,"Plant response rating (0 to 100), Windgrass",[7]; 62 g ai/ha,0
same,"Plant response rating (0 to 100), Windgrass",[7]; 125 g ai/ha,0
same,"Plant response rating, Windgrass",[7],0
same,"Plant response rating (0 to 100), Deadnettle",[8]; 31 g ai/ha,0
same,"Plant response rating (0 to 100), Deadnettle",[8]; 62 g ai/ha,0
same,"Plant response rating (0 to 100), Deadnettle",[8]; 125 g ai/ha,0
same,"Plant response rating, Deadnettle",[8],0
same,"Plant response rating (0 to 100), Cupgrass, Woolly",[9]; 31 g ai/ha,0
same,"Plant response rating (0 to 100), Cupgrass, Woolly",[9]; 62 g ai/ha,5
same,"Plant response rating (0 to 100), Cupgrass, Woolly",[9]; 125 g ai/ha,5
same,"Plant response rating, Cupgrass, Woolly",[9],5
same,"Plant response rating (0 to 100), Foxtail, Green",[10]; 31 g ai/ha,0
same,"Plant response rating (0 to 100), Foxtail, Green",[10]; 62 g ai/ha,0
same,"Plant response rating (0 to 100), Foxtail, Green",[10]; 125 g ai/ha,0
same,"Plant response rating, Foxtail, Green",[10],0
same,"Plant response rating (0 to 100), Cocklebur",[11]; 31 g ai/ha,0
same,"Plant response rating (0 to 100), Cocklebur",[11]; 62 g ai/ha,0
same,"Plant response rating (0 to 100), Cocklebur",[11]; 125 g ai/ha,10
same,"Plant response rating, Cocklebur",[11],30
same,"Plant response rating (0 to 100), Bermudagrass",[12]; 31 g ai/ha,0
same,"Plant response rating (0 to 100), Bermudagrass",[12]; 62 g ai/ha,0
same,"Plant response rating (0 to 100), Bermudagrass",[12]; 125 g ai/ha,0
same,"Plant response rating, Bermudagrass",[12],0
same,"Plant response rating (0 to 100), Surinam Grass",[13]; 62 g ai/ha,0
same,"Plant response rating (0 to 100), Surinam Grass",[13]; 125 g ai/ha,0
same,"Plant response rating, Surinam Grass",[13],0
same,"Plant response rating (0 to 100), Barley",[14]; 31 g ai/ha,0
same,"Plant response rating (0 to 100), Barley",[14]; 62 g ai/ha,0
same,"Plant response rating (0 to 100), Barley",[14]; 125 g ai/ha,0
same,"Plant response rating, Barley",[14],0
